Entries after “also recorded” stand apart in the source; their conditions may differ. {FAM} = fluorescein (FAM) fluorophore label; {BHQ1} = Black Hole Quencher 1
What was measured:
Format in all cases: binding
[1] = test system: Bgal_WT_tar oligo target; test: Affinity of stemless probes to single stranded oligo target (melt 25-90° C.); settings: for Signal (25° C.): fluorescence at 25° C., hybridised to oligo target; for Signal (25° C.) / Signal (90° C.): 280 mM NaCl, 20 mM Na2HPO4 buffer; for Signal (90° C.): fluorescence at 90° C.
Excerpt: This example illustrates how stemless beacons comprising hydrophobic modifications of the structure: X—Y-Q where X is a backbone monomer unit linked to the oligo by phosphordiester bonds and of the structure —O—CH2—CH2—O—, Y is a —CH2—O—CH2— linker and Q is 1′-pyrene, will have higher affinity towards a fully complementary target sequence than a probe not comprising said hydrophobic modifications.
It can be seen from FIG. 13 that all stemless beacons have the similar or higher affinity for the complementary oligo nucleotide target compared to the corresponding DNA. Furthermore it can be calculated that all of the stemless beacons presented in this example (exclusive probe—1) have a similar or higher signal-to-noise ratio than the DNA probe without hydrophobic modifications (signal at 25 degrees divided by signal at 90 degrees).

[2] = test system: matched DNA target; test: Melting temperature experiment (dissociation curve) of probe hybridised to matched DNA target; settings: for difference between hybridisation temperature to matched and mismatched target: FIG. 3, matched versus mismatched target; for temperature at which the probe hybridises to its matched target: FIG. 3, negative derivative of dissociation curve, 4 mM MgCl2, 50 mM KCl, 10 mM TRIS-HCl, pH=8.0
Procedure: (§1) The measurement was done as a melting temperature experiment on a Mx3000, Stratagene Real-time PCR instrument in a 96-well plate. The measurements were done in a buffer solution reflecting the buffer solutions used in a normal Real-time PCR reaction. The buffer contained 4 mM MgCl2, 50 mM KCl, 10 mM TRIS-HCl, pH=8.0. 1 μL of the Stemless Beacon (5 pmol/μL) and 2 μL of the DNA target sequence (5 pmol/μL) and 22 μL of the buffer mentioned above. First the mixtures were heated to 95° C. for 1 min to denature the secondary structures followed by annealing of the duplexes at 35° C. and ramping up to 95° C. while measuring the signal for every degrees change. Results are shown in FIG. 2, and other details like the sequences of the Stemless Beacons can be seen in the legend to said Figure.
(§2) The Measurements were carried out as described in example 2 above. Result and sequence information can be found in FIG. 3 and in the legend to said figure. The results are shown as the first derivative of the signal against temperature.

[3] = test system: mismatched DNA target; test: Melting temperature experiment (dissociation curve) of probe hybridised to mismatched DNA target; settings: for temperature at which the probe hybridises to its mismatched target: FIG. 3, negative derivative of dissociation curve, 4 mM MgCl2, 50 mM KCl, 10 mM TRIS-HCl, pH=8.0
Procedure: as §1, §2

[4] = test system: nucleotide 2074 of human Andrenogen receptor, wild type (THP cDNA) and A→G mutant (LNCap cDNA); test: End-point affinity measurements on FAM and HEX channel, SNP detection
Procedure: (§3) A test was setup to see if the used combination of probes would be able to distinguish between the wildtype and the A→G transition mutant. Measurements in this example were carried out on the Real-time PCR machine Rotorgene™ 3000 from Corbett Research.
(§4) In this experiment the mut. specific probe was added together with wt. specific probe in a homogenous assay. The label 1 means the inserted pseudonucleotide or hydrophobic nucleotide (Phosphoramidite of (S)-1-(4,4′-dimethoxytriphenylmethyloxy)-3-pyrenemethyloxy-2-propanol) comprising the hydrophobic, intercalating molecule pyrene (with the number XII from the description above). The label 2 means the inserted pseudonucleotide or hydrophobic nucleotide (Phosphoramidite of 3-(1-O-(4,4′-dimethoxytriphenylmethyl)-2-O-(2-cyanoethyl diisopropylamidophosphite)-1,2-butandiol)-4-N-(7,9-Dimethyl-3H-pyrido[3′,2′:4,5]thieno[3,2-d]pyrimidin-4-one)) (comprising the intercalating hydrophobic group with the number XXVI from the description above). FAM and Hex are fluorophores and BHQ1 is a quencher.
(§5) The template: 2 samples of each with cDNA extracted from either LNCap (mutant) and/or THP (wt) (6 samples overall).
(§6) The Real-Time PCR profile used is depicted in FIG. 14B.

[5] = test system: nucleotide 2074 of human Andrenogen receptor, wild type (THP cDNA) and A→G mutant (LNCap cDNA); test: Real-time PCR SNP detection, fluorescence read at 55, 61 and 65° C.
Procedure: as §3, §4, §5, §6

[6] = Example 2, FIG. 2, methylated/unmethylated bisulphite treated DNA target

5′-Fam ACC GA1 CCC AG1 CGC CC BHQ1-3′ [Probe _6]
Signal (25° C.) [1]: 77.01
Signal (90° C.) [1]: 12.85

5′-Fam A1C CGA CCC AGC GCC 1C BHQ1-3′ [Probe _2]
Signal (25° C.) [1]: 34.12
Signal (90° C.) [1]: 4.7

5′-Fam ACC G1A CCC AGC 1GC CC BHQ1-3′ [Probe _5]
Signal (25° C.) [1]: 50.57
Signal (90° C.) [1]: 7.81

FAM-ATTTTAGGGCGTTTTTTTG-BHQ1 (DNA, 5' {FAM}, 3' {BHQ1}, backbone not given here) [reference compound]
difference between hybridisation temperature to matched and mismatched target [2]: 7.8 °C
temperature at which the probe hybridises to its matched target [2]: 64.9 °C
temperature at which the probe hybridises to its mismatched target [3]: 57.1 °C

HEX-2TCAAA2AGCGA2ACTG2AT-BHQ1 (DNA NTCAAANAGCGANACTGNAT; pseudonucleotide insertions denoted 2, identity not given here, further chemistry not given here) [mut. specific probe, mutant specific probe; 2 = pseudonucleotide with hydrophobic group XXVI]
width of window distinguishing fully complementary from single nucleotide mismatched target ([4]; HEX channel, at temperatures above 55° C.): at least 10 °C
binding of probe in real-time PCR ([5]; at 55° C.): hybridising specifically to its target
binding of probe in real-time PCR ([5]; at 61° C.): worked fine
binding of probe in real-time PCR ([5]; at 65° C.): no longer binding

FAM-T2AGG2GCGT2TTTT2T-BHQ1 (DNA TNAGGNGCGTNTTTTNT; FAM, BHQ1, intercalating pseudonucleotide insertions, further chemistry not given here) [SB, 2 = inserted pseudonucleotide comprising intercalating hydrophobic group XXVI]
difference between hybridisation temperature to matched and mismatched target [2]: 13.8 °C
temperature at which the probe hybridises to its matched target [2]: 63.7 °C
specificity higher than Stemless DNA probe having the same affinity ([2]; measured as difference in affinity to a matched versus a mismatched target): 77%
temperature at which the probe hybridises to its mismatched target [3]: 49.9 °C

5′-Fam ACC GAC CCA GCG CCC BHQ1-3′ (DNA ACCGACCCAGCGCCC; reference probe without hydrophobic nucleotides, sugar not given here, further chemistry not given here) [Probe _ref (DNA), DNA probe without hydrophobic modifications, reference compound]
Signal (25° C.) [1]: 38.11
Signal (90° C.) [1]: 8.65
Signal-to-noise ([1]; signal at 25 degrees divided by signal at 90 degrees): 4.41

FAM-A2AAA2ATCCCG2CGA2ACT-BHQ1 (DNA ANAAANATCCCGNCGANACT; FAM, BHQ1, 4 hydrophobic pseudonucleotide insertions, chemistry not fully specified) [Stemless Beacon]
melting temperature of the probe against the fully matched target [2, 6]: 67 °C
background fluorescence (fluorescence of unbound probe) compared to the Stemless DNA probe ([2]; FIG. 2, 35 to 95° C.): significantly reduced background fluorescence; also recorded: much lower
melting temperature of the probe against the mismatched target [3, 6]: 56 °C

5′-Fam ACC GAC 1CC A1G CGC CC BHQ1-3′ [Probe _7]
Signal (25° C.) [1]: 46.92
Signal (90° C.) [1]: 7.98

FAM-T1CAAA1AGTGA1ACTG1AT-BHQ1 (DNA TNCAAANAGTGANACTGNAT; DNA probe with hydrophobic pseudonucleotide insertions denoted 1, structure not given here, further chemistry not given here) [wt specific probe, wild type specific probe; 1 = pyrene pseudonucleotide]
width of window of specific hybridisation ([4]; FAM channel): approximately 5 degree
binding of probe in real-time PCR ([5]; at 55° C.): binds to both the wild type target and the mutant
binding of probe in real-time PCR ([5]; at 61° C.): only a specific signal from wt probe is obtained
binding of probe in real-time PCR ([5]; at 65° C.): only binding to its specific target
